Results reported in BindingDB's records for doi:10.1016/s0960-894x(99)00659-9 (Kyoto Pharmaceutical University, 2000).

Assay: Inhibitory activity against porcine pancreatic elastase (PPE)

Going from `O=C(CCc1cccc(Cl)c1Cl)N[C@@H](Cc1ccccc1)C(=O)CCl` [N-((S)-1-Benzyl-3-chloro-2-oxo-propyl)-3-(2,3-dichloro-phenyl)-propionamide] to `COc1ccccc1CCC(=O)N[C@@H](Cc1ccccc1)C(=O)CCl` [N-((S)-1-Benzyl-3-chloro-2-oxo-propyl)-3-(2-methoxy-phenyl)-propionamide], the IC50 rises from 32 µM to 85 µM (2.7-fold). The first is the more potent here.

Going from `O=C(CCc1cccc(F)c1)N[C@@H](Cc1ccccc1)C(=O)CCl` [N-((S)-1-Benzyl-3-chloro-2-oxo-propyl)-3-(3-fluoro-phenyl)-propionamide] to `O=C(CCc1cccc(O)c1)N[C@@H](Cc1ccccc1)C(=O)CCl` [N-((S)-1-Benzyl-3-chloro-2-oxo-propyl)-3-(3-hydroxy-phenyl)-propionamide], the IC50 rises from 280 µM to > 1000 µM.

Compared with `COc1cccc(CCC(=O)N[C@@H](Cc2ccccc2)C(=O)CCl)c1` [N-((S)-1-Benzyl-3-chloro-2-oxo-propyl)-3-(3-methoxy-phenyl)-propionamide], `Cc1cccc(CCC(=O)N[C@@H](Cc2ccccc2)C(=O)CCl)c1` [N-((S)-1-Benzyl-3-chloro-2-oxo-propyl)-3-m-tolyl-propionamide] is 4.6-fold lower in IC50: 600 µM for the first, 130 µM for the second.

Going from `O=C(CCc1cccc(C(F)(F)F)c1)N[C@@H](Cc1ccccc1)C(=O)CCl` [N-((S)-1-Benzyl-3-chloro-2-oxo-propyl)-3-(3-trifluoromethyl-phenyl)-propionamide] to `O=C(CCc1ccc(C(F)(F)F)cc1)N[C@@H](Cc1ccccc1)C(=O)CCl` [N-((S)-1-Benzyl-3-chloro-2-oxo-propyl)-3-(4-trifluoromethyl-phenyl)-propionamide], the IC50 falls from 37 µM to 13 µM (2.8-fold). The second is the more potent here.

Going from `O=C(CCc1ccc(F)cc1)N[C@@H](Cc1ccccc1)C(=O)CCl` [N-((S)-1-Benzyl-3-chloro-2-oxo-propyl)-3-(4-fluoro-phenyl)-propionamide] to `O=C(CCc1ccc(O)cc1)N[C@@H](Cc1ccccc1)C(=O)CCl` [N-((S)-1-Benzyl-3-chloro-2-oxo-propyl)-3-(4-hydroxy-phenyl)-propionamide], the IC50 rises from 240 µM to > 1000 µM. The first is the more potent here.

Going from `CC(C)c1ccc(CCC(=O)N[C@@H](Cc2ccccc2)C(=O)CCl)cc1` [N-((S)-1-Benzyl-3-chloro-2-oxo-propyl)-3-(4-isopropyl-phenyl)-propionamide] to `Cc1ccc(CCC(=O)N[C@@H](Cc2ccccc2)C(=O)CCl)cc1` [N-((S)-1-Benzyl-3-chloro-2-oxo-propyl)-3-p-tolyl-propionamide], the IC50 rises from 15 µM to 90 µM (6-fold).

Compared with `O=C(/C=C/c1ccccc1)N[C@@H](Cc1ccccc1)C(=O)CCl` [N-((S)-1-Benzyl-3-chloro-2-oxo-propyl)-3-phenyl-acrylamide], `O=C(CCc1ccccc1)N[C@@H](Cc1ccccc1)C(=O)CCl` [N-((S)-1-Benzyl-3-chloro-2-oxo-propyl)-3-phenyl-propionamide] is 5.8-fold higher in IC50: 26 µM for the first, 150 µM for the second. The first is the more potent here.
